Test results reported in patent US20250353863A1, “TRICYCLIC SPIROLACTAM COMPOUNDS WITH ANTIMYCOBACTERIAL ACTIVITY” (priority 2022, published 2025).
≈ marks a conversion by molar mass, not a printed value.

tested on: Mtb H37Rv-WT; assay: MIC by resazurin microtiter assay (REMA) against Mtb; type: cell-based; conditions: Mycobacterium tuberculosis, 144 h, REMA, 37° C., 6 days, read-out: MIC (μM) H37Rv-WT

Row | SMILES | MIC [µM]
1 | CC(C)[C@H]1CO[C@]23CCN(CCCc4ccc(C(F)(F)F)cc4)C[C@H]2CCC(=O)N13 [(3S,7aR,11aR)-3-isopropyl-9-[3-[4-(trifluoromethyl)phenyl]propyl]-2,3,6,7,7a,8,10,11-octahydrooxazolo[2,3-j][1,6]naphthyridin-5-one] | < 1
2 | CC(C)[C@H]1CO[C@]23CCN(c4ccc(C(F)(F)F)cc4)C[C@H]2CCC(=O)N13 [(3S,7aR,11aR)-3-isopropyl-9-[4-(trifluoromethyl)phenyl]-2,3,6,7,7a,8,10,11-octahydrooxazolo[2,3-j][1,6]naphthyridin-5-one] | 1 to 10 (≈ 0.382 to 3.82 µg/mL)
3 | CC(C)[C@H]1CO[C@]23CCN(Cc4nccn4C)C[C@H]2CCC(=O)N13 [(3S,7aR,11aR)-3-isopropyl-9-[(1-methylimidazol-2-yl)methyl]-2,3,6,7,7a,8,10,11-octahydrooxazolo[2,3-j][1,6]naphthyridin-5-one] | 1 to 10 (≈ 0.332 to 3.32 µg/mL)
4 | Cc1c(CN2CC[C@]34OC[C@H](C(C)C)N3C(=O)CC[C@@H]4C2)[nH]c2ccccc12 [(3S,7aR,11aR)-3-isopropyl-9-[(3-methyl-1H-indol-2-yl)methyl]-2,3,6,7,7a,8,10,11-octahydrooxazolo[2,3-j][1,6]naphthyridin-5-one] | < 1
5 | CC(C)[C@H]1CO[C@]23CCN(Cc4cccc(Oc5ccccc5)c4)C[C@H]2CCC(=O)N13 [(3S,7aR,11aR)-3-isopropyl-9-[(3-phenoxyphenyl)methyl]-2,3,6,7,7a,8,10,11-octahydrooxazolo[2,3-j][1,6]naphthyridin-5-one] | < 1
6 | CC(C)[C@H]1CO[C@]23CCN(Cc4ccc(-c5ccccc5)cc4)C[C@H]2CCC(=O)N13 [(3S,7aR,11aR)-3-isopropyl-9-[(4-phenylphenyl)methyl]-2,3,6,7,7a,8,10,11-octahydrooxazolo[2,3-j][1,6]naphthyridin-5-one] | < 1
7 | CC(C)[C@H]1CO[C@]23CCN(Cc4cc(C(F)(F)F)nc5ccccc45)C[C@H]2CCC(=O)N13 [(3S,7aR,11aR)-3-isopropyl-9-[[2-(trifluoromethyl)-4-quinolyl]methyl]-2,3,6,7,7a,8,10,11-octahydrooxazolo[2,3-j][1,6]naphthyridin-5-one] | < 1
8 | CC(C)[C@H]1CO[C@]23CCN(Cc4ccc(N5CCCCC5)cc4)C[C@H]2CCC(=O)N13 [(3S,7aR,11aR)-3-isopropyl-9-[[4-(1-piperidyl)phenyl]methyl]-2,3,6,7,7a,8,10,11-octahydrooxazolo[2,3-j][1,6]naphthyridin-5-one] | 1 to 10 (≈ 0.412 to 4.12 µg/mL)
9 | CC(C)[C@H]1CO[C@]23CCN(Cc4ccc(C(F)(F)F)cc4)C[C@H]2CCC(=O)N13 [(3S,7aR,11aR)-3-isopropyl-9-[[4-(trifluoromethyl)phenyl]methyl]-2,3,6,7,7a,8,10,11-octahydrooxazolo[2,3-j][1,6]naphthyridin-5-one] | < 1
10 | CC(C)[C@H]1CO[C@]23CC(=O)N(Cc4ccc(C(F)(F)F)cc4)C[C@H]2CCC(=O)N13 [(3S,7aR,11aR)-3-isopropyl-9-[[4-(trifluoromethyl)phenyl]methyl]-3,6,7,7a,8,11-hexahydro-2H-oxazolo[2,3-j][1,6]naphthyridine-5,10-dione] | > 10
11 | CC(C)[C@H]1CO[C@]23CCN(Cc4ccc(N5CCC(Oc6ccc(OC(F)(F)F)cc6)CC5)cc4)C[C@H]2CCC(=O)N13 [(3S,7aR,11aR)-3-isopropyl-9-[[4-[4-[4-(trifluoromethoxy)phenoxy]-1-piperidyl]phenyl]methyl]-2,3,6,7,7a,8,10,11-octahydrooxazolo[2,3-j][1,6]naphthyridin-5-one] | < 1
12 | CC(C)[C@H]1CO[C@]23CCN(Cc4ccc(N5CCC(c6ccc(OC(F)(F)F)cc6)CC5)cc4)C[C@H]2CCC(=O)N13 [(3S,7aR,11aR)-3-isopropyl-9-[[4-[4-[4-(trifluoromethoxy)phenyl]-1-piperidyl]phenyl]methyl]-2,3,6,7,7a,8,10,11-octahydrooxazolo[2,3-j][1,6]naphthyridin-5-one] | < 1
13 | CC(C)[C@H]1CO[C@]23CCN(Cc4ccc(C(F)(F)F)cc4)C[C@H]2CC(F)(F)C(=O)N13 [(3S,7aR,11aR)-6,6-difluoro-3-isopropyl-9-[[4-(trifluoromethyl)phenyl]methyl]-3,7,7a,8,10,11-hexahydro-2H-oxazolo[2,3-j][1,6]naphthyridin-5-one] | < 1
14 | CC(C)[C@H]1CO[C@]23CCN(Cc4ccc(C(F)(F)F)cc4)C[C@H]2C[C@@H](F)C(=O)N13 [(3S,7aR,11aR)-6-fluoro-3-isopropyl-9-[[4-(trifluoromethyl)phenyl]methyl]-2,3,6,7,7a,8,10,11-octahydrooxazolo[2,3-j][1,6]naphthyridin-5-one] | < 1
15 | CC(C)[C@H]1CO[C@]23CCN(C(=O)C(F)(F)c4ccc(C(F)(F)F)cc4)C[C@H]2CCC(=O)N13 [(3S,7aR,11aR)-9-[2,2-difluoro-2-[4-(trifluoromethyl)phenyl]acetyl]-3-isopropyl-2,3,6,7,7a,8,10,11-octahydrooxazolo[2,3-j][1,6]naphthyridin-5-one] | > 10
16 | CC(C)[C@H]1CO[C@]23CCN(CC(F)(F)c4ccc(C(F)(F)F)cc4)C[C@H]2CCC(=O)N13 [(3S,7aR,11aR)-9-[2,2-difluoro-2-[4-(trifluoromethyl)phenyl]ethyl]-3-isopropyl-2,3,6,7,7a,8,10,11-octahydrooxazolo[2,3-j][1,6]naphthyridin-5-one] | < 1
17 | CC(C)[C@H]1CO[C@]23CCN(Cc4cc(C5CC5)nc5ccccc45)C[C@H]2CCC(=O)N13 [(3S,7aR,11aR)-9-[(2-cyclopropyl-4-quinolyl)methyl]-3-isopropyl-2,3,6,7,7a,8,10,11-octahydrooxazolo[2,3-j][1,6]naphthyridin-5-one] | < 1
18 | CC(C)[C@H]1CO[C@]23CCN(Cc4ccc(Cl)c(Cl)c4)C[C@H]2CCC(=O)N13 [(3S,7aR,11aR)-9-[(3,4-dichlorophenyl)methyl]-3-isopropyl-2,3,6,7,7a,8,10,11-octahydrooxazolo[2,3-j][1,6]naphthyridin-5-one] | < 1
19 | CC(C)[C@H]1CO[C@]23CCN(Cc4ccc(Cl)cc4)C[C@H]2CCC(=O)N13 [(3S,7aR,11aR)-9-[(4-chlorophenyl)methyl]-3-isopropyl-2,3,6,7,7a,8,10,11-octahydrooxazolo[2,3-j][1,6]naphthyridin-5-one] | < 1
20 | CC(C)[C@H]1CO[C@]23CCN(Cc4ccc(F)cc4)C[C@H]2CCC(=O)N13 [(3S,7aR,11aR)-9-[(4-fluorophenyl)methyl]-3-isopropyl-2,3,6,7,7a,8,10,11-octahydrooxazolo[2,3-j][1,6]naphthyridin-5-one] | < 1
21 | CC(C)[C@H]1CO[C@]23CCN(Cc4ccc(O)cc4)C[C@H]2CCC(=O)N13 [(3S,7aR,11aR)-9-[(4-hydroxyphenyl)methyl]-3-isopropyl-2,3,6,7,7a,8,10,11-octahydrooxazolo[2,3-j][1,6]naphthyridin-5-one] | > 10
22 | CC(C)[C@H]1CO[C@]23CCN(Cc4ccc(C(F)(F)F)cc4C(F)(F)F)C[C@H]2CCC(=O)N13 [(3S,7aR,11aR)-9-[[2,4-bis(trifluoromethyl)phenyl]methyl]-3-isopropyl-2,3,6,7,7a,8,10,11-octahydrooxazolo[2,3-j][1,6]naphthyridin-5-one] | < 1
23 | CC(C)[C@H]1CO[C@]23CCN(Cc4ccc(Cl)c(C(F)(F)F)c4)C[C@H]2CCC(=O)N13 [(3S,7aR,11aR)-9-[[4-chloro-3-(trifluoromethyl)phenyl]methyl]-3-isopropyl-2,3,6,7,7a,8,10,11-octahydrooxazolo[2,3-j][1,6]naphthyridin-5-one] | < 1
24 | O=C1CC[C@@H]2CN(Cc3ccccc3)CC[C@@]23OC[C@H](C2CC2)N13 [(3S,7aR,11aR)-9-benzyl-3-cyclopropyl-2,3,6,7,7a,8,10,11-octahydrooxazolo[2,3-j][1,6]naphthyridin-5-one] | > 10
25 | CC(C)[C@H]1CO[C@]23CCN(C4CCCCC4)C[C@H]2CCC(=O)N13 [(3S,7aR,11aR)-9-cyclohexyl-3-isopropyl-2,3,6,7,7a,8,10,11-octahydrooxazolo[2,3-j][1,6]naphthyridin-5-one] | > 10
26 | CC(C)[C@H]1CO[C@]23CCN(Cc4ccc(C(F)(F)F)cc4)C(=O)[C@H]2CCC(=O)N13 [(3S,7aS,11aR)-3-isopropyl-9-[[4-(trifluoromethyl)phenyl]methyl]-3,6,7,7a,10,11-hexahydro-2H-oxazolo[2,3-j][1,6]naphthyridine-5,8-dione] | > 10
27 | CC(C)[C@H]1CO[C@]23CCCN(Cc4ccc(C(F)(F)F)cc4)C[C@H]2CCC(=O)N13 [(4S,9R)-4-isopropyl-11-[[4-(trifluoromethyl)phenyl]methyl]-2-oxa-5,11-diazatricyclo[7,5,0.01,5]tetradecan-6-one] | < 1

same assay, conditions: Mycobacterium tuberculosis, REMA, read-out: MIC M. tuberculosis

Row | SMILES | MIC [µM]
28 | CC(C)[C@H]1CO[C@]23CCN(Cc4ccc(C(F)(F)F)cc4C(F)(F)F)C[C@H]2CCC(=O)N13 [Example 10, (3S,7aR,11aR)-9-[[2,4-bis(trifluoromethyl)phenyl]methyl]-3-isopropyl-2,3,6,7,7a,8,10,11-octahydrooxazolo[2,3-j][1,6]naphthyridin-5-one] | < 1
29 | CC(C)[C@H]1CO[C@]23CCN(Cc4cc(C5CC5)nc5ccccc45)C[C@H]2CCC(=O)N13 [Example 24, (3S,7aR,11aR)-9-[(2-cyclopropyl-4-quinolyl)methyl]-3-isopropyl-2,3,6,7,7a,8,10,11-octahydrooxazolo[2,3-j][1,6]naphthyridin-5-one] | < 1
30 | CC(C)[C@H]1CO[C@]23CCN(Cc4cc(C(F)(F)F)nc5ccccc45)C[C@H]2CCC(=O)N13 [Example 25, (3S,7aR,11aR)-3-isopropyl-9-[[2-(trifluoromethyl)-4-quinolyl]methyl]-2,3,6,7,7a,8,10,11-octahydrooxazolo[2,3-j][1,6]naphthyridin-5-one] | < 1
31 | CC(C)[C@H]1CO[C@]23CCN(CCc4ccc(C(F)(F)F)cc4)C[C@H]2CCC(=O)N13 [Example 38, (3S,7aR,11aR)-3-isopropyl-9-[2-[4-(trifluoromethyl)phenyl]ethyl]-2,3,67,7a,8,10,11-octahydrooxazolo[2,3-j][1,6]naphthyridin-5-one] | < 1
